Laboratory results reported in PMC5108032, “Discovery of a Quinoline-4-carboxamide Derivative with a Novel Mechanism of Action, Multistage Antimalarial Activity, and Potent in Vivo Efficacy” (Journal of Medicinal Chemistry, 2016).

How the values were obtained:
[1] = Intrinsic clearance (Cli) in human liver microsomes; assay type: in vitro ADME; conditions: human liver microsome
Description: (§1) inhibition at top, C= EC50, D= slope, x= inhibitor concentration and y= % inhibition. […]
(§2) reach 100% of inhibition, B was fixed to 100 only when at least 50% of inhibition was reached.
(§3) Plasmodium falciparum late stage (IV-V) gametocyte high content imaging assay Plasmodium falciparum NF54-pfs16-LUC-GFP stage IV-V Gametocytes were produced as described previously.5 Compounds were solubilized in DMSO and serially diluted in three concentrations per log standard curves in DM SO. One µl of compound was subsequently diluted in 25µl of water (4% DMSO) and 5µl transferred into the base of 384 well PerkinElmer CellCarrier plates. Forty-five µl of stage IV-V gametocytes (10%P in 0.1%H) were added to the imaging plates which were in turn sealed with a gas permeable membrane and incubated at 37°C, 5% CO 2, 5% O2, 90% N2 and 60% humidity […]
Post incubation, 5µl of MitoTracker® Red CM -H2Xros (MTR) solution (0.66ug/ml) was added to all wells and the plates incubated for a further 16hours. The assay plates were then imaged and the number of viable gametocytes determined for test compounds plus 0.4%DMSO and 5µM Puromycin.
(0.4%DMSO) control values. Percent inhibition was plotted against log compound concentration using a 4 parameter log dose, non-linear regression analysis, with sigmoidal dose response (variable slope) curve fit using Prizm 4.0. IC50 values were obtained from this curve fit. The compound testing was performed in duplicate point within two separate experiments.
Plasmodium berghei ookinete development assay
Assay was performed as previously reported.6 Briefly blood containing P. berghei CTRPp-GFP gametocytes was rapidly harvested from infected mice and introduced to test compounds pre-diluted in ookinete medium (to induce gamete formation and support ookinete development) in 96-well plates. Plates were incubated in the dark at 21°C for 22 hr before GFP fluorescence intensity measured in a plate reader. % inhibition of ookinete formation was calculated with reference to the fluorescence intensity values of a positive control (20 µM cycloheximide) and a solvent-only negative control (DMSO). All assays were performed in triplicate independent experiments and EC50 values calculated in Graphpad Prism.
The aqueous solubility of the test compounds was measured using laser nephelometry, as described previously.7 Compounds were subject to serial dilution from 10 mg/mL to 0.5 mg/mL in DMSO. An aliquot was then mixed with MilliQ water to obtain an aqueous dilution plate with a final concentration range of 100 – 5 μg/mL, with a final DMSO concentration of 1.0%. Triplicate aliquots were transferred to a flat bottomed polystyrene plate which was immediately read on the NEPHELOstar (BMG Lab Technologies). The amount of laser scatter caused by insoluble particulates (relative nephelometry units, RNU) was plotted against compound concentration using a segmental regression fit, with the point of inflection being quoted as the compounds aqueous solubility (μg/mL; […]
Intrinsic Clearance (Cli) experiments
The procedure was carried out as reported previously.7 Test compound (0.5 µM) was incubated with female CD1 mouse, male sprague-dawley rat or pooled human mixed gender liver microsomes (Xenotech LLC TM; 0.5 mg/mL 50 mM potassium phosphate buffer, pH 7.4) and the reaction initiated […]
by the addition of excess NADPH (8 mg/mL 50 mM potassium phosphate buffer, pH 7.4). […]

[2] = test system: Plasmodium falciparum strain 3D7; assay: Plasmodium falciparum screening, SYBR green growth inhibition; assay type: cell-based; conditions: 3D7, supplementary csv, read-out: Pf (3D7) EC50
Experimental: Plasmodium falciparum screening
Assays against P. falciparum were conducted as previously described.1 Cultures of the widely-used malaria reference strain of chloroquine-sensitive Plasmodium falciparum strain 3D7 were maintained in a 5% suspension of human red blood cells (obtained from East of Scotland Blood Transfusion Service, Ninewells Hospital, Dundee) cultured in RPMI 1640 medium (pH 7.3) supplemented with 0.5% Albumax II (Gibco Life Technologies, San Diego, CA), 12 mM sodium bicarbonate, 0.2 mM hypoxanthine and 20 mg/L gentamicin at 37°C, in a humidified atmosphere of 1% O 2, 3% CO2 with a balance of nitrogen. Growth inhibition was quantified using a fluorescence assay utilising the binding of SYBR green to double stranded DNA, which emits a fluorescent signal at 528 nm after excitation at 485nm.2 Mefloquine (potency range 30-60 nM) was used as a drug control to monitor the quality of the assay (Z’ = 0.6 to 0.8, Signal to background >3, where Z’ is a measure of the discrimination between the positive and negative controls on a screen plate). A 96-well [3H]-Hypoxanthine incorporation assay was also developed as a secondary assay in order to validate compounds from the initial screen in an orthogonal platform.3 Compound bioactivity from both assays was expressed as […]
P. falciparum (panel of resistant strains) in vitro assay. (Swiss TPH)
All Plasmodium strains were cultured according to Trager and Jensen and are described at www.beiresources.org (resistant strains: K1, W2, 7G8, TM90C2A, D6 and V1/S, sensitive strain:
NF54). EC50 values were determined in vitro by measuring incorporation of the nucleic acid precursor […]
Mammalian Cell Growth Inhibition assay
A counter-screen against normal diploid human fibroblasts (MRC-5 cell line) was carried out to exclude non-selective, and toxic compounds. The assay was essentially carried out as described previously.4 Cells were plated and incubated overnight to allow them to adhere as monolayers. A working stock of each test compound was transferred to an intermediate 384-well plate and pre-diluted with minimum essential media (MEM). The pre-diluted stocks were then transferred onto the cell monolayers, and the plates were incubated for 68 h. Resazurin, to a final concentration of 50 μM, was added to each well, after which plates were incubated for a further 3 h and measured for fluorescence (λex=528 nm, λem=590 nm)
In vitro Cell Assay Data Analysis.
All data was processed using IDBS ActivityBase® raw data was converted into per cent inhibition through linear regression by setting the high inhibition control as 100% and the no inhibition control as 0%. Quality control criteria for passing plates were as follows: Z’> 0.5, S:B> 3, %CV(no inhibition < 15 . The formula used to calculate Z’ is 1 3× (St D e v _ hi gh + St D e v _ low) . […]
All EC50 Curve fitting was undertaken using XLFit version 4.2 using Model 205 with the following 4 parametric equation: y = A + B A A + ($-&) ,where A=% inhibition at bottom, B=% […]
as §1, §2, §3
Post incubation, 5µl of MitoTracker® Red CM -H2Xros (MTR) solution (0.66ug/ml) was added to all wells and the plates incubated for a further 16hours. […]

Structure (SMILES) | HLM Cli [1] [mL min^–1 g^–1] | EC50 [2] [nM]
O=C(NCCN1CCCC1)c1cc(NCCCN2CCOCC2)nc2ccc(F)cc12 [Compound 25, 6-Fluoro-2-((3-morpholinopropyl)amino)-N-(2-(pyrrolidin-1-yl)ethyl)quinoline-4-carboxamide] | <0.5 | 
O=C(NCCN1CCCC1)c1cc(NCCCCN2CCOCC2)nc2ccc(Cl)cc12 [Compound 27, 6-Chloro-2-((4-morpholinobutyl)amino)-N-(2-(pyrrolidin-1-yl)ethyl)quinoline-4-carboxamide] | <1 | 3.8
O=C(NCCN1CCCC1)c1cc(NCCC2CCOCC2)nc2ccc(Cl)cc12 [Compound 30, 6-Chloro-N-(2-(pyrrolidin-1-yl)ethyl)-2-((2-(tetrahydro-2H-pyran-4-yl)ethyl)amino)quinoline-4-carboxamide] | 1 | 
O=C(NCCN1CCCC1)c1cc(-c2ccc(S(=O)(=O)N3CCOCC3)cc2)nc2ccc(F)cc12 [Compound 38, 6-Fluoro-2-(4-(morpholinosulfonyl)phenyl)-N-(2-(pyrrolidin-1-yl)ethyl)quinoline-4-carboxamide] |  | 4.4
O=C(NCCN1CCCC1)c1cc(-c2ccc(CN3CCOCC3)cc2F)nc2ccc(F)cc12 [Compound 41] | 1.5 | 1.9
